Assays:
Type in all cases: cell-based
[1] = test system: bacteria (Escherichia coli, Staphylococcus aureus, Pseudomonas aeruginosa, and Salmonella enterica); assay: Antimicrobial performance of treated textiles against bacteria (Experimental Examples 1); conditions: 6% o.w.f. of the chemical; for efficiency in killing bacteria: polyester textile treated with one single agent; for efficiency for killing bacteria: cotton textile treated with one single agent
Experimental: (§1) All microbiological tests were performed with cultures of the bacteria Escherichia coli American Type Culture Collection (ATCC) 25922, Staphylococcus aureus ATCC 6538, Pseudomonas aeruginosa ATCC 15442, Salmonella enterica ATCC 10708, and of the fungi Candida albicans ATCC 10231, and Aspergillus Niger ATCC […].
(§2) With Experimental Examples 1, the effect of the application of different numbers of agents to the starting textile materials was studied. The agents applied to the cotton material were taken from the group of silver, PHMB, and propiconazole, which are the three most preferred antimicrobial agents for treating cellulosic textile materials. The agents applied to the polyester material were taken from the group of silver, propiconazole, and quaternary ammonium organosilane compounds, which are the three most preferred antimicrobial agents for treating synthetic textile materials.
(§3) The textiles were treated with (1) each of the agents from the respective group individually, (2) all three tuple combinations of agents from the respective groups, and (3) all three agents from the respective groups together. The total amount of the chemicals in all experiments was 6% o.w.f. Thus, where one single agent was applied to the textile, 6% o.w.f. of the respective chemical was used, where a combination of two agents was applied, 3% o.w.f. of each of the respective two chemicals was used, and where a combination of three agents was applied, 2% o.w.f. of each of the respective three chemicals was used.
(§4) The finishing process was as described above in the context of the working examples, but since no hydrophilic/stain release agent was applied, there was only one process cycle. The fabric was exhausted and then dried and cured in one single pass through the stenter, with the process parameters as described above.

[2] = test system: fungi (Candida albicans and Aspergillus Niger); assay: Antimicrobial performance of treated textiles against fungi (Experimental Examples 1); conditions: 6% o.w.f. of the chemical
Experimental: as §1, §2, §3, §4

microorganisms = assay: Tests made by the inventor on alternative metals and azoles adhered to textiles (results not reproduced)
[3] = polyester textile treated with one single agent
[4] = cotton textile treated with one single agent

Compound | efficiency in killing bacteria [1] | efficiency for killing fungi [2, 3] | efficiency for killing bacteria [1] | efficiency for killing fungi [2, 4] | antimicrobial performance compared with zinc and copper (microorganisms)
CCCCCCCCCCCCCCCCCC[N+](C)(C)CCC[Si](OC)(OC)OC [Dimethyloctadecyl[3-(trimethoxysilyepropyl]ammonium chloride] | about equally efficient | not efficient |  |  | 
propiconazole [reference compound] | about as efficient against bacteria as silver and quaternary ammonium organosilane | works well | not efficient | efficient | 
silver | about equally efficient | not efficient | about equally efficient | perform poorly | considerably higher than that of zinc, and even much higher than that of copper

From patent US20190254282A1, “Non-Leaching Surface Sanitizer and Wipe with Improved Washability and/or Absorbency” (Livinguard AG, priority 2016, published 2019)
